Data on 16 compounds can be found in patent EP4722219A1 (Gan & Lee Pharmaceuticals Co., Ltd., priority 2023, dated 2024).

The structures appear in SMILES notation.

The experiment deals with T1, AR protein (Homo sapiens, UniProt P10275, T878A).
T1 construct: host or cells: LNCaP FGC
T1 sequence (P10275 1-920 T878A): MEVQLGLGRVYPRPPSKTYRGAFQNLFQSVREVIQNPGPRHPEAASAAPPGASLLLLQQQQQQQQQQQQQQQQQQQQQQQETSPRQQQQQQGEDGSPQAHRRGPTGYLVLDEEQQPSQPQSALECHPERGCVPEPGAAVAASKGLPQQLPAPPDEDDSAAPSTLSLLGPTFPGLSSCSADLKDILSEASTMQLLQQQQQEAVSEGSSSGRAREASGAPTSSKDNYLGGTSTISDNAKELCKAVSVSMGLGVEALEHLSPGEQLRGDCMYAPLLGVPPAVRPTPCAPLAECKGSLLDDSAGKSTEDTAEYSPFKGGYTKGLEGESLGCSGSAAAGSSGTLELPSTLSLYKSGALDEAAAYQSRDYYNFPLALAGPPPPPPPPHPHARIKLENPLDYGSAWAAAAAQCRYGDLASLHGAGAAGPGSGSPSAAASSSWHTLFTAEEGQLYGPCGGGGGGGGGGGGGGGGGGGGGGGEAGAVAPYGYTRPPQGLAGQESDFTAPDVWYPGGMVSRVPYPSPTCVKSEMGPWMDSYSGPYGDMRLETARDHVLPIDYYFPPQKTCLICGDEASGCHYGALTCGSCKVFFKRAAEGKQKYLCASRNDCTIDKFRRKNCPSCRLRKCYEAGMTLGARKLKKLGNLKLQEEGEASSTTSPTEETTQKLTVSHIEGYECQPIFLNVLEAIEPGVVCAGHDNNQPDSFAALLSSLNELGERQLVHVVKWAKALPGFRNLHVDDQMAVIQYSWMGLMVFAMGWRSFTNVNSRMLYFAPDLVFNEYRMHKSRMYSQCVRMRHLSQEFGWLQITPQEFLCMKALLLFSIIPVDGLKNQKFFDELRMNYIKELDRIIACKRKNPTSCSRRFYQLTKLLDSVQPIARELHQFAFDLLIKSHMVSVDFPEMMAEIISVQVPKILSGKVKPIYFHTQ
The experiment can be described thus: AR protein degradation in LNCaP cells (Western blot). The format is cell-based. The note with it: 8 hours; for Degradation of AR protein in LNCaP cells, 10 nM (%) / percent AR protein degradation at a fixed concentration at 0.01 µM: 10 nM; for Degradation of AR protein in LNCaP cells, 100 nM (%) / percent AR protein degradation at a fixed concentration at 0.1 µM: 100 nM. Summed up: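 AR degradation rate derived from Western blot band densitometry, referenced to GAPDH, using total lysates of LNCaP cells treated 8 h with compound versus solvent control. Detection used infrared dual-color imaging after SDS-PAGE and PVDF transfer.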
Background: A western blot detects proteins with antibodies after separation by electrophoresis.

For the compound `COc1cc(O[C@H]2C(C)(C)[C@H](NC(=O)c3ccc(N4CCC(CN5CCC6(CCc7cc(C(=O)N[C@H]8CCC(=O)NC8=O)c(F)cc7O6)CC5)CC4)cc3)C2(C)C)ccc1C#N` [A-P-30], the “Degradation of AR protein in LNCaP cells, 10 nM (%)” value (from here on “Degradation … 10 nM (%)”) stood at 41% and the “Degradation of AR protein in LNCaP cells, 100 nM (%)” value (from here on “Degradation … 100 nM (%)”) came out at 78%.

As to `COc1cc(O[C@H]2C(C)(C)[C@H](NC(=O)c3ccc(N4CCC(C)(CN5CCC6(CCc7cc(C(=O)N[C@H]8CCC(=O)NC8=O)c(F)cc7O6)CC5)CC4)cc3)C2(C)C)ccc1C#N` [A-P-31, 1'-((1-((4-((1r,3r)-3-(4-cyano-3-methoxyphenoxy)-2,2,4,4-tetramethylcyclobutyl)carbamoyl)phenyl)-4-methylpiperidin-4-yl)methyl)-N-((S)-2,6-dioxopiperidin-3-yl)-7-fluorospiro[2,4'-piperidin]-6-carboxamide], the percent AR protein degradation at a fixed concentration at 0.01 µM worked out at 47% and the percent AR protein degradation at a fixed concentration at 0.1 µM was determined as 71%.

Take `COc1cc(O[C@H]2C(C)(C)[C@H](NC(=O)c3ccc(N4CCC(CN5CCC6(CCc7cc(C(=O)N[C@H]8CCC(=O)NC8=O)c(F)cc7O6)CC5)CC4)nc3)C2(C)C)ccc1C#N` [A-P-33, 1'-((1-(5-(((1R,3R)-3-(4-cyano-3-methoxyphenoxy)-2,2,4,4-tetramethylcyclobutyl)carbamoyl)pyridin-2-yl)piperidin-4-yl)methyl)-N-((S)-2,6-dioxopiperidin-3-yl)-7-fluorospiro[chroman-2,4'-piperidin]-6-carboxamide]: the “Degradation … 10 nM (%)” value is on record as 84% and the “Degradation … 100 nM (%)” value is on record as 85%.

Regarding `COc1cc(O[C@H]2C(C)(C)[C@H](NC(=O)c3ccc(N4CCC(CN5CCC6(CCc7cc(C(=O)N[C@H]8CCC(=O)NC8=O)c(F)cc7O6)CC5)CC4)nn3)C2(C)C)ccc1C#N` [A-P-34, 1'-((1-(6-(((1R,3R)-3-(4-cyano-3-methoxyphenoxy)-2,2,4,4-tetramethylcyclobutyl)carbamoyl)pyridazin-3-yl)piperidin-4-yl)methyl)-N-((S)-2,6-dioxopiperidin-3-yl)-7-fluorospiro[chroman-2,4'-piperidin]-6-carboxamide], the “Degradation … 10 nM (%)” value came out at 72% and the “Degradation … 100 nM (%)” value is on record as 85%.

With `C[C@H]1CC2(CCN(c3ccc(C(=O)N4CCC(CN5CCC6(CCc7cc(C(=O)N[C@H]8CCC(=O)NC8=O)c(F)cc7O6)CC5)CC4)cc3)CC2)CN1c1ccc(C#N)c(Cl)c1` [A-P-35, 1'-((1-(4-((S)-2-(3-chloro-4-cyanophenyl)-3-methyl-2,8-diazaspiro[4.5]decan-8-yl)benzoyl)piperidin-4-yl)methyl)-N-((S)-2,6-dioxopiperidin-3-yl)-7-fluorospiro[chroman-2,4'-piperidin]-6-carboxamide], the percent AR protein degradation at a fixed concentration at 0.01 µM was found to be 61% and the percent AR protein degradation at a fixed concentration at 0.1 µM is 70%.

In the case of `COc1cc(O[C@H]2C(C)(C)[C@H](NC(=O)c3ccc(N4CCC(CN5CCC6(CCc7cc(C(=O)N[C@H]8CCC(=O)NC8=O)c(F)cc7O6)CC5)(OC)CC4)cc3)C2(C)C)ccc1C#N` [A-P-36], the “Degradation … 10 nM (%)” value is listed as 52% and the “Degradation … 100 nM (%)” value turned out to be 70%.

With `COc1cc(O[C@H]2C(C)(C)[C@H](NC(=O)c3ccc(N4CCC5(CC4)CC(N4CCC6(CCc7cc(C(=O)N[C@H]8CCC(=O)NC8=O)c(F)cc7O6)CC4)C5)cc3)C2(C)C)ccc1C#N` [A-P-37, 1'-(7-(4-(((1R,3R)-3-(4-cyano-3-methoxyphenoxy)-2,2,4,4-tetramethylcyclobutyl)carbamoyl)phenyl)-7-azaspiro[3.5]nonan-2-yl)-N-((S)-2,6-dioxopiperidin-3-yl)-7-fluorospiro[chroman-2,4'-piperidin]-6-carboxamide], the “Degradation … 10 nM (%)” value turned out to be 10% and the “Degradation … 100 nM (%)” value is 63%.

Regarding `COc1cc(O[C@H]2C(C)(C)[C@H](NC(=O)c3ccc(N4CCC(C)(CN5CCC6(CCc7cc(F)c(C(=O)N[C@H]8CCC(=O)NC8=O)cc7O6)CC5)CC4)cc3)C2(C)C)ccc1C#N` [A-P-38, 1-(1-(4-((1R,3R)-3-((4-cyano-3-methoxyphenoxy)-2,2,4,4-tetramethylcyclobutyl)carbamoyl)phenyl)-4-methylpiperidin-4-methyl)-N-((S)-2,6-dioxopiperidin-3-yl)-6-fluorospiro[chroman-2,4'-piperidin]-7-carboxamide], the “Degradation … 10 nM (%)” value is on record as -2% and the “Degradation … 100 nM (%)” value was determined as 0%.

Regarding `COc1cc(O[C@H]2C(C)(C)[C@H](NC(=O)c3ccc(N4CCC(CN5CCC6(CCc7cc(F)c(C(=O)N[C@H]8CCC(=O)NC8=O)cc7O6)CC5)CC4)cc3)C2(C)C)ccc1C#N` [A-P-39], the “Degradation … 10 nM (%)” value is 22% and the “Degradation … 100 nM (%)” value was 39%.

As for `COc1cc(O[C@H]2C(C)(C)[C@H](NC(=O)c3ccc(N4CCC(CN5CCC6(CCc7cc(F)c(C(=O)N[C@H]8CCC(=O)NC8=O)cc7O6)CC5)(OC)CC4)cc3)C2(C)C)ccc1C#N` [A-P-40], the “Degradation … 10 nM (%)” value amounted to 26% and the “Degradation … 100 nM (%)” value amounted to 46%.

Take `COc1cc(O[C@H]2C(C)(C)[C@H](NC(=O)c3ccc(N4CCC(F)(CN5CCC6(CCc7cc(F)c(C(=O)N[C@H]8CCC(=O)NC8=O)cc7O6)CC5)CC4)cc3)C2(C)C)ccc1C#N` [A-P-41]: the “Degradation … 10 nM (%)” value is -37% and the “Degradation … 100 nM (%)” value is recorded as -31%.

For `C[C@H]1CC2(CCN(c3ccc(N4CCC(CN5CCC6(CCc7cc(C(=O)N[C@H]8CCC(=O)NC8=O)c(F)cc7O6)CC5)CC4)cc3)CC2)CN1c1ccc(C#N)c(Cl)c1` [A-P-42, 1'-((1-(4-((S)-2-(3-chloro-4-cyanophenyl)-3-methyl-2,8-diazaspiro[4.5]decan-8-yl)phenyl)piperidin-4-yl)methyl)-N-((S)-2,6-dioxopiperidin-3-yl)-7-fluorospiro[chroman-2,4'-piperidin]-6-carboxamide], the percent AR protein degradation at a fixed concentration at 0.01 µM came to 44% and the percent AR protein degradation at a fixed concentration at 0.1 µM came to 77%.

Turning to `COc1cc(O[C@H]2C(C)(C)[C@H](NC(=O)c3ccc(N4CCC(C)(CN5CCC6(CCc7cc(C(=O)N[C@H]8CCC(=O)NC8=O)c(F)cc7O6)CC5)CC4)cn3)C2(C)C)ccc1C#N` [A-P-43, 1'-((1-(6-(((1r,3r)-3-(4-cyano-3-methoxyphenoxy)-2,2,4,4-tetramethylcyclobutyl)carbamoyl)pyridin-3-yl)-4-methylpiperidin-4-yl)methyl)-N-((S)-2,6-dioxopiperidin-3-yl)-7-fluorospiro[chroman-2,4'-piperidin]-6-carboxamide], the “Degradation … 10 nM (%)” value worked out at 8% and the “Degradation … 100 nM (%)” value is on record as 35%.

In the case of `CC1(C)[C@H](NC(=O)c2ccc(N3CCC(CN4CCC5(CCc6cc(C(=O)N[C@H]7CCC(=O)NC7=O)c(F)cc6O5)CC4)CC3)nc2)C(C)(C)[C@H]1Oc1ccc(C#N)c(C(F)(F)F)c1` [A-P-45, 1'-((1-(5-(((1R,3R)-3-(4-cyano-3-(trifluoromethyl)phenoxy)-2,2,4,4-tetramethylcyclobutyl)carbamoyl)pyridin-2-yl)piperidin-4-yl)methyl)-N-((S)-2,6-dioxopiperidin-3-yl)-7-fluorospiro[chroman-2,4'-piperidin]-6-carboxamide], the “Degradation … 10 nM (%)” value is 52% and the “Degradation … 100 nM (%)” value is listed as 85%.

Consider `COc1cc(O[C@H]2C(C)(C)[C@H](NC(=O)c3ccc(N4CCC(C)(CN5CCC6(CCc7cc(C(=O)N[C@H]8CCC(=O)NC8=O)c(F)cc7O6)CC5)CC4)nn3)C2(C)C)ccc1C#N` [A-P-48, 1'-((1-(6-(((1R,3R)-3-(4-cyano-3-methoxyphenoxy)-2,2,4,4-tetramethylcyclobutyl)carbamoyl)pyridazin-3-yl)-4-methylpiperidin-4-yl)methyl)-N-((S)-2,6-dioxopiperidin-3-yl)-7-fluorospiro[chroman-2,4'-piperidin]-6-carboxamide], for which the “Degradation … 10 nM (%)” value was found to be 45% and the “Degradation … 100 nM (%)” value is given as 63%.

On to `COc1cc(O[C@H]2C(C)(C)[C@H](NC(=O)c3ccc(N4CCC(C)(CN5CCC6(CCc7cc(C(=O)N[C@H]8CCC(=O)NC8=O)c(F)cc7O6)CC5)CC4)nc3)C2(C)C)ccc1C#N` [A-P-49, 1'-((1-(5-(((1R,3R)-3-(4-cyano-3-methoxyphenoxy)-2,2,4,4-tetramethylcyclobutyl)carbamoyl)pyridin-2-yl)-4-methylpiperidin-4-yl)methyl)-N-((S)-2,6-dioxopiperidin-3-yl)-7-fluorospiro[chroman-2,4'-piperidin]-6-carboxamide], for which the “Degradation … 10 nM (%)” value came to 48% and the “Degradation … 100 nM (%)” value came to 62%.
